Active and inactive are the calls of the source. How the calls were made is not given here.
Target: Caspase-6 (Homo sapiens) (UniProt P55212)
Experiment: human caspase-6 inhibitors, dose response, biochemical, VEID-R110 fluorescence, cherry-pick (AID 720632)
Conditions: caspase-6, VEID-R110 fluorogenic substrate

Chain of Caspase-6 (Homo sapiens) (P55212 24-179 limits assumed): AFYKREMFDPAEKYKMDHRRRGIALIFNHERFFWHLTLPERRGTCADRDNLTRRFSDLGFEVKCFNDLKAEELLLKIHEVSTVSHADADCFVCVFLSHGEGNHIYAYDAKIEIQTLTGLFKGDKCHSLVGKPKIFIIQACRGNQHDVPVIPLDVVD
Chain of Caspase-6 (Homo sapiens) (P55212 194-293 limits assumed): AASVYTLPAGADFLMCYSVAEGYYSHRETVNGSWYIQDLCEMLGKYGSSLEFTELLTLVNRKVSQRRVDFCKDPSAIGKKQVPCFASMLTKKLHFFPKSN

Compound | activity change, negative = inhibition (at 26 µM (top of the series)) | activity change, negative = inhibition (at 23.5 µM (top of the series))
Cn1c(SCCOc2ccccc2Cl)nnc1-c1ccncc1 | inactive | –
COc1ccc(OC)c(NC(=O)Nc2ccc(O)c3ccccc23)c1 | inactive | –
CC(C)(C)N(Cc1ccccc1)C(=O)COC(=O)c1ccc([N+](=O)[O-])o1 | inactive | –
O=C(O)c1cccc(S(=O)(=O)NNc2ccccc2C(F)(F)F)c1 | inactive | –
O=C([C@@H]1[C@@H](CO)[C@@H]2Cn3c(cccc3=O)[C@@H]2N1Cc1cc(F)ccc1F)N1CCOCC1 | inactive | –
Cc1ccc(S(=O)(=O)n2c(C)nc3ccccc32)cc1 | inactive | –
CCCCn1nnnc1C(CCSC)N1CCC(n2c(=O)[nH]c3ccccc32)CC1 (stereo not given) | inactive | –
Cc1ccc(C)c(N2CCN(C(=O)CCCn3c(=S)[nH]c4cc5c(cc4c3=O)OCO5)CC2)c1 | inactive | –
O=C(Oc1cccc(-n2cnnn2)c1)c1ccccc1Cl | inactive | –
CO[C@H]1CN(C)C(=O)c2ccc(NC(=O)C3CC3)cc2OC[C@@H](C)N(CC2CCOCC2)C[C@@H]1C | inactive | –
CO[C@H]1CN(C)C(=O)c2ccc(NC(C)=O)cc2OC[C@H](C)N(C(=O)CC2CC2)C[C@H]1C | inactive | –
O=C(Nc1cccc(-c2ccccc2)c1)N1CCN(C(=O)Nc2cccc(-c3ccccc3)c2)CC1 | inactive | –
O=C1c2ccccc2[C@@H]2C[C@@H](O)[C@H](Nc3cccc4ccccc34)CCN12 | inactive | –
CCOC(=O)c1c(NC(=O)C2CC(Cl)=CCC2C(=O)O)sc2c1CC(C)(C)OC2 (stereo not given) | inactive | –
CO[C@H]1CN(C)C(=O)c2ccc(NC(=O)C3CC3)cc2OC[C@@H](C)N(Cc2ccccc2)C[C@@H]1C | inactive | –
CCCN1C[C@@H](C)[C@@H](OC)CN(C)C(=O)c2ccc(NC(=O)CC)cc2OC[C@@H]1C | inactive | –
Cc1cccc(N2CCN(C(=O)CCCn3c(=S)[nH]c4cc5c(cc4c3=O)OCO5)CC2)c1C | inactive | –
CO[C@@H]1CN(C)C(=O)c2ccc(NC(=O)C3CC3)cc2OC[C@H](C)N(CC2CCOCC2)C[C@H]1C | inactive | –
Cc1nc2ccc(NS(=O)(=O)c3c(F)cc(F)cc3Br)cc2s1 | inactive | –
C=C1[C@H](C)CN[C@H]1CCO | inactive | –
O=C(COC(=O)c1ccc([N+](=O)[O-])s1)NC(=O)NCc1ccccc1 | inactive | –
O=C(CNc1cccc(S(=O)(=O)N2CCCC2)c1)Nc1cccc(Br)c1 | inactive | –
CCCN1C[C@@H](C)[C@@H](OC)CN(C)C(=O)c2ccc(NC(=O)CC)cc2OC[C@H]1C | inactive | –
Nc1ccccc1Sc1ccc(C(=O)c2ccccc2C(=O)O)cc1[N+](=O)[O-] | inactive | –
O=[N+]([O-])c1ccc(S(=O)(=O)N2CCC3(CC2)OCCN3S(=O)(=O)c2cccs2)cc1 | inactive | –
COCC(=O)N1[C@@H]2CN(C(=O)Nc3ccccc3F)c3ccccc3[C@@H]2[C@@H]1CO | – | inactive
O=C(Cc1ccc([N+](=O)[O-])cc1)c1c(O)cc(O)cc1O | inactive | –
O=c1[nH]c2ccc(F)cc2[nH]c1=O | inactive | –
CCC(=O)Nc1ccc2c(c1)OC[C@@H](C)N(C(=O)CC)C[C@H](C)[C@H](OC)CN(C)C2=O | inactive | –
Oc1ccc(/C=N/n2c(-c3ccccc3)n[nH]c2=S)cc1Br | inactive | –

Reference: PubChem BioAssay AID720632 (Broad Institute, 2013)
